≈ marks a conversion by molar mass, not a printed value. Where two headings read alike, the source gives them in different places.
Columns and labels:
[1] = system: E. coli ATCC 25922; experiment: MIC assay, CLSI broth microdilution, E. coli ATCC 25922 (AECO001); format: cell-based; conditions: for MIC: Escherichia coli, read-out: MIC AECO001
Experimental: (§1) Minimum inhibitory concentrations (MIC) were determined by reference Clinical and Laboratory Standards Institute (CLSI) broth microdilution methods per M7-A7 [2006]. Quality control ranges utilizing E. coli ATCC 25922, P. aeruginosa ATCC 27853 and S. aureus ATCC 29213, and interpretive criteria for comparator agents were as published in CLSI M100-S17 [2007]. Briefly, serial two-fold dilutions of the test compounds were prepared at 2× concentration in Mueller Hinton Broth. The compound dilutions were mixed in 96-well assay plates in a 1:1 ratio with bacterial inoculum. The inoculum was prepared by suspension of a colony from an agar plate that was prepared the previous day. Bacteria were suspended in sterile saline and added to each assay plate to obtain a final concentration of 5×10^5 CFU/mL. The plates were incubated at 35° C. for 20 hours in ambient air.
These MIC assays were conducted following the same protocol as set forth in Example 110. As shown, substituted sisomicin derivatives with groups other than methyl at the 6′-position have improved activity against strains expressing the AAC6′-modifying enzymes.

[2] = system: P. aeruginosa ATCC 27853; experiment: MIC assay, CLSI broth microdilution, P. aeruginosa ATCC 27853 (APAE001); format: cell-based; conditions: Pseudomonas aeruginosa, read-out: MIC APAE001
Experimental: as §1

Structure (SMILES) | MIC ([1]; ATCC25922, 20 h) [µg/mL] | MIC ([2]; ATCC27853, 20 h) [µg/mL] | MIC ([1]; AECO001 is ATCC25922, 35° C., 20 hours) [µg/mL] | MIC AECO001 ([1]; Table 3, E. coli ATCC25922) [µg/mL] | MIC ([2]; APAE001 is ATCC27853, 35° C., 20 hours) [µg/mL]
CN[C@@H]1[C@@H](O)[C@@H](O[C@@H]2[C@@H](O)[C@H](O[C@H]3OC(CNCC4(N)CCC4)=CC[C@H]3N)[C@@H](N)C[C@H]2NC(=O)[C@@H](O)CN)OC[C@]1(C)O [Example 56, 6′-(Methyl-1-amino-cyclobutyl)-1-(3-amino-2(S)-hydroxy-propionyl)-sisomicin] | < 1 | > 16 |  |  | 
CN[C@@H]1[C@@H](O)[C@@H](O[C@@H]2[C@@H](O)[C@H](O[C@H]3OC(CNC[C@H]4C[C@H](N)C4)=CC[C@H]3N)[C@@H](N)C[C@H]2NC(=O)[C@@H](O)CN)OC[C@]1(C)O [Example 59, 6′-(Methyl-trans-3-amino-cyclobutyl)-1-(3-amino-2(S)-hydroxy-propionyl)-sisomicin] | < 1 | 1 to 16 (≈ 1.62 to 25.9 µM) |  |  | 
CN[C@@H]1[C@@H](O)[C@@H](O[C@@H]2[C@@H](O)[C@H](O[C@H]3OC(CNC[C@H]4C[C@H](N)C4)=CC[C@H]3N)[C@@H](N)C[C@H]2NC(=O)C2(O)CC(N)C2)OC[C@]1(C)O (stereo partly drawn) [Example 60] | < 1 | 1 to 16 (≈ 1.55 to 24.9 µM) |  |  | 
CNCC1=CC[C@@H](N)[C@@H](O[C@H]2[C@H](O)[C@@H](O[C@H]3OC[C@](C)(O)[C@H](NC)[C@H]3O)[C@H](NC(=O)C3(O)CNC3)C[C@@H]2N)O1 [Example 61] |  |  | < 1 | 1 (≈ 1.78 µM) | 1 to 16 (≈ 1.78 to 28.5 µM)
CN[C@@H]1[C@@H](O)[C@@H](O[C@@H]2[C@@H](O)[C@H](O[C@H]3OC(CNCCO)=CC[C@H]3N)[C@@H](N)C[C@H]2NC(=O)C2(O)CC(N)C2)OC[C@]1(C)O (stereo partly drawn) [Example 62] | < 1 | 1 to 16 (≈ 1.65 to 26.5 µM) |  |  | 
CN[C@@H]1[C@@H](O)[C@@H](O[C@@H]2[C@@H](O)[C@H](O[C@H]3OC(CNC[C@H]4C[C@H](N)C4)=CC[C@H]3N)[C@@H](N)C[C@H]2NC(=O)C2(O)CNC2)OC[C@]1(C)O [Example 63] | < 1 | 1 to 16 (≈ 1.59 to 25.4 µM) |  |  | 
CN[C@@H]1[C@@H](O)[C@@H](O[C@@H]2[C@@H](O)[C@H](O[C@H]3OC(CNC[C@@H]4C[C@H](N)CN4)=CC[C@H]3N)[C@@H](N)C[C@H]2NC(=O)[C@@H](O)CN)OC[C@]1(C)O [Example 65, 6′-(Methyl-4(S)-amino-pyrrolidin-2(S)-yl)-1-(3-amino-2(S)-hydroxy-propionyl)-sisomicin] | 1 to 16 (≈ 1.58 to 25.3 µM) | 1 to 16 (≈ 1.58 to 25.3 µM) |  |  | 
CN[C@@H]1[C@@H](O)[C@@H](O[C@@H]2[C@@H](O)[C@H](O[C@H]3OC(CNCC4(CN)CC4)=CC[C@H]3N)[C@@H](N)C[C@H]2NC(=O)[C@@H](O)CN)OC[C@]1(C)O [Example 66, 6′-(Methyl-1-aminomethyl-cyclopropyl)-1-(3-amino-2(S)-hydroxy-propionyl)-sisomicin] | < 1 | 1 to 16 (≈ 1.62 to 25.9 µM) |  |  | 
CN[C@@H]1[C@@H](O)[C@@H](O[C@@H]2[C@@H](O)[C@H](O[C@H]3OC(CNCC4(N)CC4)=CC[C@H]3N)[C@@H](N)C[C@H]2NC(=O)[C@@H](O)CN)OC[C@]1(C)O [Example 67, 6′-(Methyl-1-Amino-cyclopropyl)-1-(3-amino-2(S)-hydroxy-propionyl)-sisomicin] | 1 to 16 (≈ 1.66 to 26.5 µM) | 1 to 16 (≈ 1.66 to 26.5 µM) |  |  | 
CN[C@@H]1[C@@H](O)[C@@H](O[C@@H]2[C@@H](O)[C@H](O[C@H]3OC(CNCC(O)CCN)=CC[C@H]3N)[C@@H](N)C[C@H]2NC(=O)[C@@H](O)CN)OC[C@]1(C)O (stereo partly drawn) [Example 68, 6′-(2-Hydroxy-4-amino-butyl)-1-(3-amino-2(S)-hydroxy-propionyl)-sisomicin] | 1 to 16 (≈ 1.61 to 25.7 µM) | 1 to 16 (≈ 1.61 to 25.7 µM) |  |  | 
CN[C@@H]1[C@@H](O)[C@@H](O[C@@H]2[C@@H](O)[C@H](O[C@H]3OC(CNC[C@H]4C[C@@H](N)[C@@H](O)C4)=CC[C@H]3N)[C@@H](N)C[C@H]2NC(=O)[C@@H](O)CN)OC[C@]1(C)O [Example 69, 6′-(Methyl-1(R)-amino-2(S)-hydroxy-cyclopent-4(S)-yl)-1-(3-amino-2(S)-hydroxy-propionyl)-sisomicin] | < 1 | 1 to 16 (≈ 1.54 to 24.7 µM) |  |  | 
CN[C@@H]1[C@@H](O)[C@@H](O[C@@H]2[C@@H](O)[C@H](O[C@H]3OC(CNCCC4(O)CNC4)=CC[C@H]3N)[C@@H](N)C[C@H]2NC(=O)[C@@H](O)CN)OC[C@]1(C)O [Example 70, 6′-(Ethyl-2-(3-hydroxy-azetidin-3-yl))-1-(3-amino-2(S)-hydroxy-propionyl)-sisomicin] | 1 to 16 (≈ 1.58 to 25.2 µM) | > 16 |  |  | 
CN[C@@H]1[C@@H](O)[C@@H](O[C@@H]2[C@@H](O)[C@H](O[C@H]3OC(CNCC4CC4)=CC[C@H]3N)[C@@H](N)C[C@H]2NC(=O)C(O)C2CNC2)OC[C@]1(C)O (stereo partly drawn) [Example 71, 6′-Methylcyclopropyl-1-(2-(azetidin-3-yl)-2-hydroxy-acetyl)-sisomicin] | 1 to 16 (≈ 1.63 to 26 µM) | > 16 |  |  | 
CN[C@@H]1[C@@H](O)[C@@H](O[C@@H]2[C@@H](O)[C@H](O[C@H]3OC(CNC[C@H]4C[C@H](N)C4)=CC[C@H]3N)[C@@H](N)C[C@H]2NC(=O)C(O)C2CNC2)OC[C@]1(C)O (stereo partly drawn) [Example 72, 6′-(Methyl-trans-3-amino-cyclobutyl)-1-(2-(azetidin-3-yl)-2-hydroxy-acetyl)-sisomicin] | 1 to 16 (≈ 1.55 to 24.9 µM) | 1 to 16 (≈ 1.55 to 24.9 µM) |  |  | 
CN[C@@H]1[C@@H](O)[C@@H](O[C@@H]2[C@@H](O)[C@H](O[C@H]3OC(CNCC4CNC4)=CC[C@H]3N)[C@@H](N)C[C@H]2NC(=O)[C@@H](O)CN)OC[C@]1(C)O [Example 73, 6′-(Methyl-azetidin-3-yl)-1-(3-amino-2(S)-hydroxy-propionyl)-sisomicin] | 1 to 16 (≈ 1.66 to 26.5 µM) | 1 to 16 (≈ 1.66 to 26.5 µM) |  |  | 
CN[C@@H]1[C@@H](O)[C@@H](O[C@@H]2[C@@H](O)[C@H](O[C@H]3OC(CNCC4(CN)CC4)=CC[C@H]3N)[C@@H](N)C[C@H]2NC(=O)C(O)C2CNC2)OC[C@]1(C)O (stereo partly drawn) [Example 74, 6′-(Methyl-1-aminomethyl-cyclopropyl)-1-(2-(azetidin-3-yl)-2-hydroxy-acetyl)-sisomicin] | 1 to 16 (≈ 1.55 to 24.9 µM) | > 16 |  |  | 
CN[C@@H]1[C@@H](O)[C@@H](O[C@@H]2[C@@H](O)[C@H](O[C@H]3OC(CNCCO)=CC[C@H]3N)[C@@H](N)C[C@H]2NC(=O)C(O)C2CNC2)OC[C@]1(C)O (stereo partly drawn) [Example 75, 6′-(2-Hydroxy-ethyl)-1-(2-(azetidin-3-yl)-2-hydroxy-acetyl)-sisomicin] | 1 to 16 (≈ 1.65 to 26.5 µM) | > 16 |  |  | 
CN[C@@H]1[C@@H](O)[C@@H](O[C@@H]2[C@@H](O)[C@H](O[C@H]3OC(CNCCCN)=CC[C@H]3N)[C@@H](N)C[C@H]2NC(=O)C(O)C2CNC2)OC[C@]1(C)O (stereo partly drawn) [Example 76, 6′-(3-Amino-propyl)-1-(2-(azetidin-3-yl)-2-hydroxy-acetyl)-sisomicin] | 1 to 16 (≈ 1.62 to 25.9 µM) | 1 to 16 (≈ 1.62 to 25.9 µM) |  |  | 
CN[C@@H]1[C@@H](O)[C@@H](O[C@@H]2[C@@H](O)[C@H](O[C@H]3OC(CNCC(O)CCN)=CC[C@H]3N)[C@@H](N)C[C@H]2NC(=O)C(O)C2CNC2)OC[C@]1(C)O (stereo partly drawn) [Example 77, 6′-(2-Hydroxy-4-amino-butyl)-1-(2-(azetidin-3-yl)-2-hydroxy-acetyl)-sisomicin] | 1 to 16 (≈ 1.54 to 24.7 µM) | 1 to 16 (≈ 1.54 to 24.7 µM) |  |  | 
CN[C@@H]1[C@@H](O)[C@@H](O[C@@H]2[C@@H](O)[C@H](O[C@H]3OC(CNC[C@H]4C[C@H](N)C4)=CC[C@H]3N)[C@@H](N)C[C@H]2NC(=O)C2(O)CCNC2)OC[C@]1(C)O (stereo partly drawn) [Example 78, 6′-(Methyl-trans-3-amino-cyclobutyl)-1-(3-hydroxy-pyrrolidin-3-yl-acetyl)-sisomicin] | < 1 | 1 to 16 (≈ 1.55 to 24.9 µM) |  |  | 
CN[C@@H]1[C@@H](O)[C@@H](O[C@@H]2[C@@H](O)[C@H](O[C@H]3OC(CNCC4(CN)CC4)=CC[C@H]3N)[C@@H](N)C[C@H]2NC(=O)C2(O)CCNC2)OC[C@]1(C)O (stereo partly drawn) [Example 79] | 1 to 16 (≈ 1.55 to 24.9 µM) | > 16 |  |  | 
CN[C@@H]1[C@@H](O)[C@@H](O[C@@H]2[C@@H](O)[C@H](O[C@H]3OC(CNCCCC(O)CN)=CC[C@H]3N)[C@@H](N)C[C@H]2NC(=O)[C@@H](O)CN)OC[C@]1(C)O (stereo partly drawn) [Example 80, 6′-(4-Hydroxy-5-amino-pentyl)-1-(3-amino-2(S)-hydroxy-propionyl)-sisomicin] | < 1 | < 1 |  |  | 
CN[C@@H]1[C@@H](O)[C@@H](O[C@@H]2[C@@H](O)[C@H](O[C@H]3OC(CNCCNC4CNC4)=CC[C@H]3N)[C@@H](N)C[C@H]2NC(=O)[C@@H](O)CN)OC[C@]1(C)O [Example 81, 6′-(N-(Azetidin-3-yl)-2-amino-ethyl)-1-(3-amino-2(S)-hydroxy-propionyl)-sisomicin] | 1 to 16 (≈ 1.58 to 25.3 µM) | > 16 |  |  | 
CN[C@@H]1[C@@H](O)[C@@H](O[C@@H]2[C@@H](O)[C@H](O[C@H]3OC(CNCC(O)CN)=CC[C@H]3N)[C@@H](N)C[C@H]2NC(=O)C(O)C2CNC2)OC[C@]1(C)O (stereo partly drawn) [Example 82, 6′-(2-Hydroxy-3-amino-propyl)-1-(2-(azetidin-3-yl)-2-hydroxy-acetyl)-sisomicin] | 1 to 16 (≈ 1.58 to 25.2 µM) | > 16 |  |  | 
CN[C@@H]1[C@@H](O)[C@@H](O[C@@H]2[C@@H](O)[C@H](O[C@H]3OC(CNCC4(O)CC(N)C4)=CC[C@H]3N)[C@@H](N)C[C@H]2NC(=O)C(O)C2CNC2)OC[C@]1(C)O (stereo partly drawn) [Example 83, 6′-(Methyl-3-amino-1-hydroxy-cyclobutyl)-1-(2-(azetidin-3-yl)-2-hydroxy-acetyl)-sisomicin] | 1 to 16 (≈ 1.52 to 24.3 µM) | > 16 |  |  | 

From patent US11117915B2, “Antibacterial aminoglycoside analogs” (Cipla USA, Inc., priority 2007, dated 2021)
